{"source": "patent US20220267801A1", "about": "“ELIMINATION OF PROLIFERATING CELLS FROM STEM CELL-DERIVED GRAFTS” (Research Development Foundation, priority 2016, published 2022)", "key": {"[1]": {"tested_on": "TK-NPCs (neurosphere-derived neural precursor cells)", "assay": "Calcein cell viability assay, ganciclovir time course on TK-NPC", "assay_type": "cell-based, human", "conditions": "40 μM ganciclovir", "description": "(§1) The time course of the ganciclovir effect was also investigated (FIG. 2D). TK PSCs were killed by Ganciclovir (40 μM) within 4 days. TK-NPCs after 1 week of neurosphere differentiation were still sensitive to Ganciclovir (40 μM), however the time course of killing was markedly slowed down and complete killing was observed only after 8 days.\nGeneration of neurospheres containing DA neuropecursors: NPC were generated as neurospheres to contain DA progenitors as described previously (Tieng et al., 2014). Briefly, neural midbrain orientation is performed during the first week followed by 2 additional weeks of maturation to obtain 1 week or 2 or 3 week-old NPC (FIGS. 1B, 3A).\n(§2) Cell proliferation measurement by calcein assay: Cells were plated onto a 96 wells pre-coated with polyornothine+ECM (1/50). Respectively 1000 cells for pluripotent stem cells, 5000 cells for early NPC and 30000 cells for late NPC. Ganciclovir (Cemevene diluted in PBS, Roche) treatment was added the day after cell plating for PSC, 3 days later for early NPC and one week later for late NPC. Calcein (2 μM) was added for different time course of ganciclovir treatment (24 H to 96 H). Cell survival was measured by calcein integration after 24 h of incubation in a 37° C. incubator."}, "[2]": {"tested_on": "transplanted TK-NPC graft", "assay": "Transplantation of 2-3 week NPC neurospheres into mouse striatum, ganciclovir treatment", "assay_type": "in vivo, mice", "description": "(§3) FIGS. 3A-3C: Schedule of cell transplantation and ganciclovir treatment. Different transplantation and ganciclovir treatment protocols were used. (A) Schematic representation of the differentiation protocol towards DA neurons. Pluripotent stem cells were cultured as neurospheres for 1 week for midbrain orientation phase, followed by a 2 or 3 week-maturation phase. (B) Transplantation of undifferentiated pluripotent stem cells with early or late ganciclovir treatment. Early treatment: undifferentiated pluripotent stem cells were transplanted and ganciclovir (or PBS control) was applied by daily intra-peritoneal injection from day 4 to day 19 post-transplantation. Late treatment: undifferentiated pluripotent stem cells were transplanted and ganciclovir (or PBS control) was applied by daily intra-peritoneal injection from day 30 to day 45 post-transplantation. (C) Transplantation of 2 or 3 week NPC: NPC containing- neurospheres were dissociated and transplanted into mice striatum. Ganciclovir (or PBS control) treatment was given from day 4 to day 19 post-transplantation. For all protocols, animals were sacrificed 1 month after termination of ganciclovir treatment.\nTransplantation of TK-NPCs produced mature neurons which were not sensitive to ganciclovir treatment: The in vivo results, shown so far, were obtained with transplantation of undifferentiated pluripotent stem cells. However, the final goal of neuronal cell therapy is the transplantation of neural precursor cells, which should differentiate into mature neurons and be resistant to ganciclovir treatment. Therefore, 2-3 weeks-NPC containing neurospheres were transplanted (FIGS. 3C, 8). Under these conditions, no tumor formation was observed, even in the absence of ganciclovir treatment (FIG. 8A). In line with these observations, the transplanted cells (assessed by immunofluorescence 7 weeks after transplantation) were abundantly positive for beta 3 tubulin (FIG. 8B, upper panel), while a smaller fraction of cells was TH-positive (FIG. 8B, lower panel). Occasionally nestin-positive cells were observed.\nMarkers of cellular proliferation were analyzed by staining of the transplants with antibodies against PCNA and Ki67 (FIG. 8C). […] To verify whether the PCNA-positive, Ki67-negative cells were proliferating cells, BrdU experiments were performed.\nStereotaxic engraftment and ganciclovir treatment: Undifferentiated pluripotent stem cells (20000 cells/ μL) and dissociated neurospheres (100.000 cells/μL) were injected in the striatum of anesthetized mice using a 27-G Hamilton syringe. Injection coordinates for lateral striatum were: bregma=0.74 mm, mediolateral=2.25 mm, dorsoventral=3.5 mm; for medial striatum: bregma=0.74 mm, mediolateral=1.4 mm, dorsoventral=2.8 mm. […]"}, "[3]": {"tested_on": "teratoma from transplanted TK-PSC", "assay": "TK-PSC transplantation into striatum of NOD/SCID mice, ganciclovir treatment, teratoma formation", "assay_type": "in vivo", "description": "as §3\nEarly, but not late ganciclovir treatment prevents tumor formation upon transplantation of highly proliferative pluripotent stem cells: Given the encouraging results in vitro, it was investigated whether ganciclovir could prevent tumor formation in vivo. For this purpose TK-PSC were transplanted into the striatum of NOD/SCID mice. […] There was a moderate amount of mouse microglia invasion.\nIt was next investigated whether ganciclovir could also be used to treat already established teratomas. […] Mice were sacrificed 30 days after the end of the ganciclovir treatment.\nStereotaxic engraftment and ganciclovir treatment: Undifferentiated pluripotent stem cells (20000 cells/ μL) and dissociated neurospheres (100.000 cells/μL) were injected in the striatum of anesthetized mice using a 27-G Hamilton syringe. Injection coordinates for lateral striatum were: bregma=0.74 mm, mediolateral=2.25 mm, dorsoventral=3.5 mm; for medial striatum: bregma=0.74 mm, mediolateral=1.4 mm, dorsoventral=2.8 mm. Mice were euthanized one month later after ganciclovir termination.\nMorphological and Phenotypic Analysis of Injected Surviving Cells: Anesthetized mice were fixed by intracardiac perfusion of 4% paraformaldehyde in phosphate-buffered saline. Immunohistochemical detection was performed on 10-μm thick free-floating cryostat sections using Alexa 488®-, or 555-labeled secondary antibodies or the biotin—avidin—peroxidase complex method (Vector). The following primary antibodies were used: Nestin (rabbit polyclonal anti-human, from Chemicon, 1/400), β3-tubulin (mouse monoclonal from Sigma or rabbit polyclonal from Covance, 1/2000), Neuronal Nuclei-specific protein (NeuN, mouse monoclonal from Chemicon, 1/1000), Glial Fibrillary Acidic Protein (GFAP, rabbit polyclonal from Dako, 1/2000), Proliferating Cell Nuclear Antigen (PCNA, mouse monoclonal from Dako, 1/100), Tyrosin Hydroxylase (TH, rabbit polyclonal from millipore, 1/500), iba 1 (polyclonal rabbit from Wako, 1/500), HSV-TK (mouse monoclonal, Gentaur, 1/100), ki67 (monoclonal rabbit, Abcam, 1/100 or mouse, Chemicon, 1/100)."}, "[4]": {"tested_on": "TK-PSC (HS415 pluripotent stem cells expressing HSV-TK under Ki67 promoter)", "assay": "Calcein cell viability assay, ganciclovir on TK-PSC", "assay_type": "cell-based, human", "description": "(§4) The impact of ganciclovir on TK cells was determined in vitro (FIG. 2B, 2C, 2D). TK PSCs were highly sensitive to ganciclovir exposure (96 h) and even at ganciclovir concentrations of 2.5 μM loss of cells was observed, which was almost complete at 10 μM (FIG. 2B, 2C). In contrast, regular PSCs (i.e., not transduced with the TK construct) were resistant to ganciclovir even at concentrations of 40 μM (FIG. 2B, 2F). As expected from the lack of TK expression in TK neurons, TK neurons were not affected by ganciclovir concentrations up to 40 μM, similar to the control neurons.\nas §1, §2"}, "TK neurons": {"tested_on": "TK neurons", "assay": "Calcein cell viability assay, ganciclovir on TK-neurons", "assay_type": "cell-based, human", "conditions": "concentrations up to 40 μM", "description": "as §4\n(§5) Generation of NPC in two dimensional culture (2D): For differentiation in 2D, 3-week old neurospheres were dissociated with ACCUMAX® (Millipore) and replated on polyornithine- (15 μg/mL; Sigma) and laminin- (2 μg/cm^2; R&D System) coated cover slips (diameter=0.8cm) in 24-well plates at 200,000 cells/cm^2 in maturation medium for 1 week before analysis by immunofluorescence staining (FIG. 1B).\n(§6) Cell proliferation measurement by calcein assay: Cells were plated onto a 96 wells pre-coated with polyornothine+ECM (1/50). Respectively 1000 cells for pluripotent stem cells, 5000 cells for early NPC and 30000 cells for late NPC. […] Cell survival was measured by calcein integration after 24 h of incubation in a 37° C. incubator."}, "control neurons": {"tested_on": "control neurons", "assay": "Calcein cell viability assay, ganciclovir on control neurons", "assay_type": "cell-based, human", "conditions": "concentrations up to 40 μM", "description": "as §4, §5, §6"}, "[5]": {"tested_on": "regular PSCs (not transduced with the TK construct)", "assay": "Calcein cell viability assay, ganciclovir on control PSC", "assay_type": "cell-based, human", "conditions": "concentrations up to 40 μM", "description": "as §4, §2"}, "[6]": {"conditions": "early treatment, one month after termination of treatment"}}, "note": "Entries after “also recorded” stand apart in the source; their conditions may differ.", "data": [{"smiles": "Nc1nc(O)c2ncn(COC(CO)CO)c2n1", "note": "[ganciclovir]", "values": [{"measurement": "time to complete killing of TK-NPCs", "setting": "[1]; TK-NPCs after 1 week of neurosphere differentiation", "result": 8, "unit": "days"}, {"measurement": "killing of TK-NPCs", "setting": "[1]; TK-NPCs after 2 weeks of neurosphere differentiation", "result": "not killed"}, {"measurement": "size of transplants (graft surface)", "setting": "[2]; NPC from 2-3 weeks old neurospheres, early ganciclovir treatment", "result": "not affected"}, {"measurement": "proliferation marker pattern of transplants (PCNA positive, Ki67 low to absent)", "setting": "[2]; ganciclovir vs control", "result": "did not alter this pattern"}, {"measurement": "neural markers of transplanted cells (beta 3 tubulin, TH, nestin)", "setting": "[2]; immunofluorescence 7 weeks after transplantation", "result": "None of these markers were affected"}, {"measurement": "graft development, ganciclovir vs PBS", "setting": "[2]; sacrifice 4 weeks after termination of treatment", "result": "No difference"}, {"measurement": "tumor development (graft surface)", "setting": "[3]; early ganciclovir treatment", "result": "completely prevented"}, {"measurement": "Ki67 and TK expression in the graft region", "setting": "[3]; [6]", "result": "virtually no Ki67 and TK expression"}, {"measurement": "human cells (HCM) remaining in the graft", "setting": "[3]; [6]", "result": "hardly any human cells left; also recorded: barely detectable"}, {"measurement": "teratoma formation", "setting": "[3]; early treatment: 15 days, starting 4 days post-transplantation, daily i.p.", "result": "no observed teratomas; also recorded: absence of teratoma formation"}, {"measurement": "tumor size (graft surface)", "setting": "[3]; late ganciclovir treatment", "result": "did not have any effect"}, {"measurement": "teratoma formation", "setting": "[3]; late treatment: days 30-45 post-transplantation, sacrifice 30 days after end of treatment", "result": "teratoma formation; also recorded: no difference"}, {"measurement": "time to killing of TK PSCs", "setting": "[4]; 40 μM ganciclovir", "result": "≤ 4", "unit": "days"}, {"measurement": "ganciclovir concentration at which loss of cells was almost complete", "setting": "[4]; TK PSCs, 96 h exposure", "result": 10, "unit": "µM"}, {"measurement": "ganciclovir concentration at which loss of cells was observed", "setting": "[4]; TK PSCs, 96 h exposure", "result": 2.5, "unit": "µM"}, {"measurement": "effect of ganciclovir on TK neurons", "setting": "TK neurons", "result": "not affected; also recorded: lose their sensitivity"}, {"measurement": "effect of ganciclovir on control neurons", "setting": "control neurons", "result": "not affected"}, {"measurement": "sensitivity of regular (control) PSCs to ganciclovir", "setting": "[5]", "result": "resistant; also recorded: no ganciclovir toxicity is observed"}]}]}
